Consider 19 compounds from patent publication US9624170B2, “4-(piperrazin-1-yl)-pyrrolidin-2-one compounds as monoacylglycerol lipase (MAGL) inhibitors” (TAKEDA PHARMACEUTICAL COMPANY LIMITED, priority 2013, dated 2017).

The first experiment concerns the target T1, human MAGL (His-hMAGL) (Homo sapiens, UniProt Q99685).
T1 construct: made in house; host or cells: Escherichia coli BL21(DE3)
T1 sequence (Q99685 1-303): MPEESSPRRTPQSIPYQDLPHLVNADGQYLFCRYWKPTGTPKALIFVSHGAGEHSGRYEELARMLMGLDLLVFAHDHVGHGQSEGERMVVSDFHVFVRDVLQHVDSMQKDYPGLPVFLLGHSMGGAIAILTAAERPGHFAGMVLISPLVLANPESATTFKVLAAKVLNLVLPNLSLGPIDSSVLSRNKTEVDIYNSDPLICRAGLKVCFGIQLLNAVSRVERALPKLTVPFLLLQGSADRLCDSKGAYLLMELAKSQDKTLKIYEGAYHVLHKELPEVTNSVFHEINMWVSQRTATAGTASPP
Nature of the experiment: Measurement of MAGL inhibitory activity by absorbance. To be noted: 10 μM test compound; substrate p-nitrophenyl acetate, absorbance at 405 nm. In kind it is biochemical. The source says:
(1) Cloning of Human MGLL Encoding MAGL Protein and Construction of Expression Plasmid
Human MGLL cDNA was obtained by PCR using human ORF Clone (DNAForm; Clone ID: 100004585) as a template. For PCR, two kinds of primers: […]
The obtained PCR product was digested with Bam HI and Not I (Takara Bio Inc.), inserted into the Bam HI/Not I site of pET21HH(V) (pET21a (Novagen) inserted with His x6 and TEV Protease recognition sequence) by using Ligation High (Toyobo Co., Ltd.), and introduced into ECOS™ JM109 (Nippon Gene Co., Ltd.), whereby expression plasmid pET21HH(V)/His-hMGLLv2 for Escherichia coli was constructed. (2) Preparation of Recombinant Polyhistidine Tagged Human MAGL Protein
Recombinant His-hMAGL protein was prepared by transforming ECOS™ Competent E. coli BL21(DE3) (Nippon Gene Co., Ltd.) with the pET21HH(V)/His-hMGLLv2 plasmid prepared above. Escherichia coli obtained by transformation was inoculated to 10 mL of LB medium (1% peptone, 0.5% yeast extract, 0.5% sodium chloride, 0.01% ampicillin), and cultured at 30° C. for 16 hr. […] When the turbidity of the culture medium reached about 500 Klett unit, the culture temperature was lowered to 16° C., isopropyl-β-D-thiogalactopyranoside (IPTG) was added to a final concentration of 1 mM, and the mixture was further cultured for 19 hr. After the completion of culture, the culture medium was centrifuged (4° C., 6,000 rpm, 10 min) to give His-hMAGL expression Escherichia coli. Then, His-hMAGL expression Escherichia coli was suspended in 50 mM Tris-HCl (pH 8.0, 100 ml) containing 1% Triton X-100, 20 mM imidazole, 3 mM DTT, 5 U/mL Benzonase (Merck) and 150 mM NaCl, sufficiently cooled, and subjected to sonication at […]=60%, 15 sec/ON, 30 sec/OFF for 3 min using ¾″ solid type crushed horn of BRANSON Digital Sonifier 450 (Central Scientific Commerce, Inc.). Furthermore, the homogenate was centrifuged (4° C., 15,000 rpm, 15 min) and the supernatant was obtained. As the purification apparatus, AKTA explorer 10s (GE Healthcare Japan Corporation) was used at 4° C. To the obtained supernatant was added 5M NaCl to the final salt concentration of 0.3 M, and the mixture was flown through and adsorbed to 5 mL of Ni-NTA Superflow Cartridges (QIAGEN) equilibrated in advance with buffer A (50 mM Tris-HCl (pH 8.0) containing 0.05% TritonX-100, 1 mM DTT, 300 mM NaCl). The column was sufficiently washed with buffer A containing 20 mM imidazole and His-hMAGL was eluted with buffer A containing imidazole at a final concentration of 250 mM. The eluate was further subjected to gel filtration using HiLoad 26/600 Superdex 200 pg (GE Healthcare Japan Corporation) equilibrated with 50 mM Tris-HCl pH 8.0 containing 10% glycerol, 0.05% TritonX-100, 1 mM DTT, 150 mM NaCl. The eluted fraction was concentrated by Amicon Ultra-15 10K (Merck Millipore) to give purified His-hMAGL protein. The protein concentration was measured by BCA Protein Assay Kit (Thermo Fisher Scientific) using BSA as the standard.
(3) Measurement of MAGL Inhibitory Activity
His-hMAGL obtained above was diluted with enzyme reaction buffer (10 mM Tris-HCl, pH 7.5, 1 mM EDTA, 0.1 (w/v) % Triton X-100) to a concentration of 60 ng/mL. […] Thereafter, to each well was added 750 μM p-nitrophenyl acetate (Wako Pure Chemical Industries, Ltd.) by 5 μL, and the absorbance at 405 nm was measured every 2 minutes up to 10 minutes by EnVision (PerkinElmer). The amount of change was obtained by subtracting the absorbance measured immediately after the start of the reaction from the absorbance measured 10 min after the start of the reaction.
MAGL inhibitory rate (%) was calculated according to the following calculation formula. (1−(absorbance change amount of test compound addition group−absorbance change amount of enzyme addition-free group)[…](absorbance change amount of test compound addition-free group−absorbance change amount of enzyme addition-free group))×100
`O=C(c1nccs1)N1CCN(C2CC(=O)N(c3cccc(-c4ccccn4)c3)C2)CC1` (stereo not shown) [Example 64, 1-(3-(pyridin-2-yl)phenyl)-4-(4-(1,3-thiazol-2-ylcarbonyl)piperazin-1-yl)pyrrolidin-2-one] gave an inhibition at 10 µM of 90%.
Same read-out and setting: then `O=C(c1nccs1)N1CCN(C2CC(=O)N(c3cccc(-c4cccnc4)c3)C2)CC1` (stereo not shown) [Example 65, 1-(3-(pyridin-3-yl)phenyl)-4-(4-(1,3-thiazol-2-ylcarbonyl)piperazin-1-yl)pyrrolidin-2-one], with 93%; and `O=C(c1nccs1)N1CCN(C2CC(=O)N(c3cccc(-c4ccncc4)c3)C2)CC1` (stereo not shown) [Example 66, 1-(3-(pyridin-4-yl)phenyl)-4-(4-(1,3-thiazol-2-ylcarbonyl)piperazin-1-yl)pyrrolidin-2-one], with 91%.
The same measure, in the same setting: then `O=C(c1nccs1)N1CCN(C2CC(=O)N(c3cccc4ccccc34)C2)CC1` (stereo not shown) [Example 70, 1-(1-naphthyl)-4-(4-(1,3-thiazol-2-ylcarbonyl)piperazin-1-yl)pyrrolidin-2-one], with 91%; and `O=C(c1nccs1)N1CCN(C2CC(=O)N(c3ccc4cc(Br)ccc4c3)C2)CC1` (stereo not shown) [Example 71, 1-(6-brorno-2-naphthyl)-4-(4-(1,3-thiazol-2-ylcarbonyl)piperazin-1-yl)pyrrolidin-2-one], with 90%.
Same read-out and setting: for `O=C(c1nccs1)N1CCN(C2CC(=O)N(c3ccc4c(c3)oc3ccccc34)C2)CC1` (stereo not shown) [Example 72, 1-(Dibenzo[b,d]furan-3-yl)-4-(4-(1,3-thiazol-2-ylcarbonyl)piperazin-1-yl)pyrrolidin-2-one] the value was 92%.
For the compound `O=C(c1nccs1)N1CCN(C2CC(=O)N(c3cccc(I)c3)C2)CC1` (stereo not shown) [Example 75, 1-(3-iodophenyl)-4-(4-(1,3-thiazol-2-ylcarbonyl)piperazin-1-yl)pyrrolidin-2-one], the inhibition at 10 µM amounted to 95%.
On the same count and under the same terms, for `O=C(c1nccs1)N1CCN(C2CC(=O)N(c3cccc(-c4ccc(F)cc4)c3)C2)CC1` (stereo not shown) [Example 76, 1-(4′-fluorobiphenyl-3-yl)-4-(4-(1,3-thiazol-2-ylcarbonyl)piperazin-1-yl)pyrrolidin-2-one] the value was 95%; for `O=C(c1nccs1)N1CCN(C2CC(=O)N(c3cccc(Nc4ccc(F)cc4)c3)C2)CC1` (stereo not shown) [Example 77, 1-(3-((4-Fluorophenyl)amino)phenyl)-4-(4-(1,3-thiazol-2-ylcarbonyl)piperazin-1-yl)pyrrolidin-2-one], 96%; for `O=C(c1nccs1)N1CCN(C2CC(=O)N(c3cccc(Oc4ccc(F)cc4)c3)C2)CC1` (stereo not shown) [Example 79, 1-(3-(4-Fluorophenoxy)phenyl)-4-(4-(1,3-thiazol-2-ylcarbonyl)piperazin-1-yl)pyrrolidin-2-one], 95%.
On the same count and under the same terms, for `O=C(c1nccs1)N1CCN([C@@H]2CC(=O)N(c3ccc4c(ccn4-c4ncc(C(F)(F)F)cn4)c3)C2)CC1` [Example 80, (4R)-4-(4-(1,3-Thiazol-2-ylcarbonyl)piperazin-1-yl)-1-(1-(5-(trifluoromethyl)pyrimidin-2-yl)-1H-indol-5-yl)pyrrolidin-2-one] the value was 100%; for `O=C(c1nccs1)N1CCN(C2CC(=O)N(c3ccc4c(cnn4-c4ccc(F)cn4)c3)C2)CC1` (stereo not shown) [Example 81, 1-(1-(5-fluoropyridin-2-yl)-1H-indazol-5-yl)-4-(4-(1,3-thiazol-2-ylcarbonyl)piperazin-1-yl)pyrrolidin-2-one], 97%; for `O=C(c1nccs1)N1CCN(C2CC(=O)N(c3ccc4c(ccn4-c4ccc(F)cn4)c3)C2)CC1` (stereo not shown) [Example 82, 1-(1-(5-fluoropyridin-2-yl)-1H-indol-5-yl)-4-(4-(1,3-thiazol-2-ylcarbonyl)piperazin-1-yl)pyrrolidin-2-one], 95%.
On the same count and under the same terms, then `O=C(c1nccs1)N1CCN(C2CC(=O)N(c3ccc4c(ccn4-c4ncc(F)cn4)c3)C2)CC1` (stereo not shown) [Example 83, 1-(1-(5-fluoropyrirnidin-2-yl)-1H-indol-5-yl)-4-(4-(1,3-thiazol-2-ylcarbonyl)piperazin-1-yl)pyrrolidin-2-one], with 96%.
`O=C(c1nccs1)N1CCN(C2CC(=O)N(c3ccc4c(ccn4-c4ncc(Cl)cn4)c3)C2)CC1` (stereo not shown) [Example 84, 1-(1-(5-chloropyrirnidin-2-yl)-1H-indol-5-yl)-4-(4-(1,3-thiazol-2-ylcarbonyl)piperazin-1-yl)pyrrolidin-2-one] yielded an inhibition at 10 µM of 96%.
Same read-out and setting: for `O=C(c1nccs1)N1CCN(C2CC(=O)N(c3ccc4c(cnn4-c4ccc(F)cc4)c3)C2)CC1` (stereo not shown) [Example 85, 1-(1-(4-Fluorophenyl)-1H-indazol-5-yl)-4-(4-(1,3-thiazol-2-ylcarbonyl)piperazin-1-yl)pyrrolidin-2-one] the value was 99%; for `O=C(c1nccs1)N1CCN(C2CC(=O)N(c3ccc4c(cnn4-c4ccc(Cl)cn4)c3)C2)CC1` (stereo not shown) [Example 86, 1-(1-(5-chloropyridin-2-yl)-1H-indazol-5-yl)-4-(4-(1,3-thiazol-2-ylcarbonyl)piperazin-1-yl)pyrrolidin-2-one], 99%.
Still for that read-out and setting: for `O=C(c1nccs1)N1CCN(C2CC(=O)N(c3ccc4c(ccn4-c4ccc(Cl)cn4)c3)C2)CC1` (stereo not shown) [Example 87, 1-(1-(5-chloropyridin-2-yl)-1H-indol-5-yl)-4-(4-(1,3-thiazol-2-ylcarbonyl)piperazin-1-yl)pyrrolidin-2-one] the value was 98%.

The next experiment deals with Gfap, IL-1β, IL-6 gene expression in hippocampus. Nature of the experiment: Measurement of gene expression in hippocampus of kainic acid intraventricular administration rat. In kind it is in vivo. To be noted: SD rats, 30 mg/kg by gavage, hippocampus 24 hr after administration.
Regarding `O=C(c1nccs1)N1CCN([C@@H]2CC(=O)N(c3ccc4c(ccn4-c4ncc(C(F)(F)F)cn4)c3)C2)CC1` [compound 1, (4R)-4-(4-(1,3-thiazol-2-ylcarbonyl)piperazin-1-yl)-1-(1-(5-(trifluoromethyl)pyrimidin-2-yl)-1H-indol-5-yl)pyrrolidin-2-one], the “effect to decrease expression of a gene of glial fibrillary acidic protein (GFAP) (FIG. 3)” value is listed as “decrease expression”, the “effect to decrease expression of a gene of interleukin 1β (IL-1β) (FIG. 4)” value is on record as “decrease expression” and the “effect to decrease expression of a gene of interleukin 6 (IL-6) (FIG. 5)” value is given as “decrease expression”.

In another experiment the target is T1, human MAGL (His-hMAGL). Nature of the experiment: Measurement of MAGL inhibitory activity by mass spectrometry. Format: biochemical. The settings on record: 10 μM test compound; substrate 2-arachidonylglycerol, arachidonic acid by RapidFire-mass spectrometry. A digest of the protocol:
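His-tagged human MAGL was reacted with 150 μM 2-arachidonylglycerol substrate (stock, added by 5 μL) for 10 min at room temperature, then stopped with formic acid. Arachidonic acid product was quantified by RapidFire–triple-quadrupole MS in negative SRM mode, corrected by arachidonic acid-d8, and converted to percent inhibition.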
On to `O=C(c1nccs1)N1CCN([C@@H]2CC(=O)N(c3ccc4c(ccn4-c4ncc(C(F)(F)F)cn4)c3)C2)CC1` [Example 80, (4R)-4-(4-(1,3-Thiazol-2-ylcarbonyl)piperazin-1-yl)-1-(1-(5-(trifluoromethyl)pyrimidin-2-yl)-1H-indol-5-yl)pyrrolidin-2-one], for which the inhibition at 10 µM stood at 97%.

As usually defined, the inhibition is the percentage by which the read-out fell short of the control. High values mean a strong effect, low ones a weak effect.
